What all share (assay): relative viability (nuclei count vs DMSO), 5 days (fraction); higher = more cells survive
Compound in the experiment “Ricolinostat + Lapatinib”: O=C(CCCCCCNC(=O)c1cnc(N(c2ccccc2)c2ccccc2)nc1)NO [Ricolinostat] + CS(=O)(=O)CCNCc1ccc(-c2ccc3ncnc(Nc4ccc(OCc5cccc(F)c5)c(Cl)c4)c3c2)o1 [Lapatinib] (partner 2 µM)
The method, boiled down: (§1)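 Relative viability divides the nuclei count in treated wells by that in vehicle wells. Lung cancer cell lines were seeded in 1536-well plates, dosed by pin tool the next day, and fixed and stained after 5 days in one step with final 0.05% Triton X-100, 1% formaldehyde and 1 ug/ml Hoechst. Dosing was a single drug or a fixed anchor-drug dose plus five library-drug doses (not always all listed) in √10 steps, and values are medians of duplicate plates imaged at 4×.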

Compound in the experiment “TGX 221 + Trametinib”: CC1=CN2C(=O)C=C(N=C2C(=C1)C(C)NC3=CC=CC=C3)N4CCOCC4 [TGX 221] + CC(=O)Nc1cccc(-n2c(=O)n(C3CC3)c(=O)c3c(Nc4ccc(I)cc4F)n(C)c(=O)c(C)c32)c1 [Trametinib] (partner 0.02 µM)
The method in brief: as §1

Compound in the experiment “TGX 221 + Luminespib”: CC1=CN2C(=O)C=C(N=C2C(=C1)C(C)NC3=CC=CC=C3)N4CCOCC4 [TGX 221] + CCNC(=O)c1noc(-c2cc(C(C)C)c(O)cc2O)c1-c1ccc(CN2CCOCC2)cc1 [Luminespib] (partner 0.01 µM)
The method, boiled down:
as §1

Compound in experiment [1]: C1=CC=C(C(=C1)C2=CC=C(C=C2)C3=CSC4=C3C(=C(C(=O)N4)C#N)O)O + CC(C)C[C@H](NC(=O)[C@H](Cc1ccccc1)NC(=O)c1cnccn1)B(O)O [Bortezomib] (partner 0.002 µM)
The method in brief:
as §1

For NCI-H1792, the relative viability with Ricolinostat + Lapatinib (first compound 0.08 µM) is 0.719; in the experiment with Ricolinostat + Lapatinib (first compound 0.253 µM), 0.918; with Ricolinostat + Lapatinib (first compound 0.8 µM), 0.863; in the experiment with Ricolinostat + Lapatinib (first compound 2.53 µM), 1.01; with TGX 221 + Trametinib (first compound 0.08 µM), 0.436; in the experiment with TGX 221 + Trametinib (first compound 0.253 µM), 0.414. For the same cell line, the relative viability was determined as 0.366 with TGX 221 + Trametinib (first compound 0.8 µM); 0.277 in the experiment with TGX 221 + Trametinib (first compound 2.53 µM); 0.313 with TGX 221 + Trametinib (first compound 8 µM); 0.52 with TGX 221 + Luminespib (first compound 0.08 µM); 0.498 with TGX 221 + Luminespib (first compound 0.253 µM); 0.418 with TGX 221 + Luminespib (first compound 0.8 µM). The relative viability with TGX 221 + Luminespib (first compound 2.53 µM) came out at 0.375; with TGX 221 + Luminespib (first compound 8 µM) it was 0.293; in experiment [1] (first compound 0.253 µM), 0.866; in experiment [1] (first compound 0.8 µM), 1.1; in experiment [1] (first compound 2.53 µM), 1.03; in experiment [1] (first compound 8 µM), 0.425.
